Data on two molecules can be found in PMC7918738, “Microtubule Destabilizing Sulfonamides as an Alternative to Taxane-Based Chemotherapy” (International Journal of Molecular Sciences, 2021).

For series [1], the system named is MCF7 (breast adenocarcinoma). The experiment in a line: Antiproliferative activity against MCF7 (XTT colorimetric method). The class given is cell-based. Particulars: Homo sapiens, 72 h treatment. The protocol: (§1) The in vitro antiproliferative activity of MDS at 1 µM after 72 h treatments was evaluated by a colorimetric method against the human tumor cell lines HeLa (cervix epithelioid carcinoma) and MCF7 (breast adenocarcinoma). Compounds showing more than 40% inhibition at 1 µM in at least three independent assays were evaluated in a range of concentrations between 0.1 nM and 10 µM for the determination of half-maximal inhibitory concentrations (IC50) (Table 1). Paclitaxel, CA-4, and ABT-751 were used as references.
(§2) MCF7 (human breast carcinoma), SKOV-3 (human ovarian carcinoma), OVCAR-3 (human ovarian carcinoma), OVCAR-8 (human ovarian carcinoma), and HeLa (human cervical carcinoma) cell lines were cultured in Dulbecco’s Modified Eagle’s Medium (DMEM) (Gibco, Thermo Fischer Scientific) containing 10% (v/v) heat-inactivated fetal bovine serum (HIFBS) (Lonza-Cambrex, Karlskoga, Sweden), 2 mM L-glutamine (Lonza-Cambrex, Karlskoga, Sweden), 100 μg/mL streptomycin, and 100 IU/mL penicillin (Lonza-Cambrex) at 37 °C in humidified 95% air and 5% CO2. HT-29 (human colon carcinoma), IGROV-1 (human ovarian carcinoma), and A2780 (human ovarian carcinoma) cell lines were cultured in RPMI 1640 medium (Gibco, Thermo Fischer Scientific) supplemented with 10% HIFBS, 100 μg/mL streptomycin, and 100 IU/mL penicillin at 37 °C in humidified 95% air and 5% CO2 atmosphere. The presence of mycoplasma was routinely checked with MycoAlert kit (Lonza-Cambrex) and only mycoplasma-free cells were used in the experiments. Ovarian tumor cell lines were originally acquired from Dr Atanasio Pandiella from Centro de Investigación del Cáncer (CIC), Salamanca, Spain. HeLa, HT-29 and MCF7 tumor cell lines were provided by Dr Faustino Mollinedo from Centro de Investigaciones Biológicas Margarita Salas, Madrid, Spain.
(§3) MCF7, HeLa, and HT-29 cell proliferation, when treated with the corresponding compounds, were determined using the XTT (sodium 3’-[1(phenylaminocarbonyl)-3,4-tetrazolium]-bis(4-methoxy-6-nitro)-benzenesulfonic acid hydrate) cell proliferation kit (Roche Molecular Biochemicals, Mannheim, Germany). A freshly prepared mixture of XTT labeling reagent with 0.02% (v/v) PMS (N-methyl-dibenzopyrazine methyl sulfate) electron coupling reagent was added to cells (50 µL/well in 96-well plates, total volume of 160 µL/well). Cells were incubated under standard culture conditions for 4 h (MCF7 and HeLa) or 6 h (HT-29). The absorbance of the formazan product generated was measured at 450 nm using a multi-well plate reader. SKOV-3, OVCAR-3, OVCAR-8, IGROV-1, A-2780 cell proliferation, when treated with the corresponding compound, were determined using MTT (3-(4,5-dimethylthiazol-2-yl)-2,5-diphenyl-2H-tetrazolium bromide) (Sigma-Aldrich, St. Louis, MO, USA). MTT in Phosphate Buffer Saline (PBS) (5 mg/ml) was added to cells (110 µL/well in 24-well plates, total volume of 1110 µL/well). After 1 hour of incubation, the medium was aspirated, and formazan violet crystals were dissolved in dimethyl sulfoxide (DMSO) (500 µL/well). Absorbance was measured at 570 nm in a plate reader (Ultra Evolution, Tecan, Männedorf, Suiza). To determine cell viability, cells in exponential growth phase were seeded (100 µL/well in 96-well plates and 1000 µL/well in 24-well plates) with appropriate cell line concentration (1.5·10^4 cells/mL for MCF7 and HeLa, 3·10^4 cells/mL for HT-29, and 1·10^4 cells/mL for SKOV-3, OVCAR-3, OVCAR-8, IGROV-1, and A-2780) in complete RPMI 1640 or DMEM medium at 37°C and 5% CO2 atmosphere. After 24 h incubation, to allow cells to attach to the plates, all compounds were added at 1 µM concentration and the effect on the proliferation was evaluated 72 h post-treatment. Compounds showing antiproliferative effects at tested concentration were selected for IC50 calculation (50% inhibitory concentration with respect to the untreated controls) from 10^−5 to 10^−10 M concentration. Non-linear curves fitting the experimental data were carried out for each compound. […]

The nature of series [2]: Aqueous solubility, saturation shake-flask method, UV absorbance. Particulars: pH 7, aqueous buffer, thermodynamic from solid.
Description: UV absorbance at three maximum absorbance wavelengths of selected compounds was measured after 48 h shaking and subsequent microfiltration.
The aqueous solubility of the sulfonamides was determined using an approach based on the saturation shake-flask method. Tested compounds (1–2 mg) were stirred in pH 7.0 phosphate buffer (300 µL) for 48 h at room temperature. The resulting suspension was filtered over a 45 µm filter to discard insoluble residues, and the concentration in the supernatant was measured by UV absorbance. To determine the concentration, a scan between 270 and 400 nm was performed in a Helios-α UV-320 Spectrophotometer (Thermo-Spectronic, Thermo Fischer Scientific, Waltham, MA, USA) for each tested compound. Then, three maximum wavelengths of absorbance per compound were selected from the previous scan and calibration curves were performed at these three wavelengths. Solubility results are given as the average of the three measurements.
The subject of series [3] is HeLa (cervix epithelioid carcinoma). The experiment in a line: Antiproliferative activity against HeLa (XTT colorimetric method). The series is classed as cell-based. Particulars: Homo sapiens, 72 h treatment. The protocol: as §1, §2, §3
Series [4] concerns tubulin (microtubular protein isolated from calf brain). The experiment in a line: Tubulin Polymerization Inhibition (TPI) assay, turbidity. The class given is biochemical. Particulars: 1.5 mg/mL microtubular protein. The protocol:
The effect of all the synthesized compounds on the in vitro tubulin polymerization was evaluated at 10 µM. All the compounds that inhibited polymerization more than 30% were also assayed at 20 µM. IC50 values were calculated for those compounds inhibiting tubulin polymerization by at least 50% at 20 µM (Table 1 and Supplemental Figure S2).
Microtubular protein was isolated from calf brain according to the modified Shelanski method by two cycles of temperature-dependent assembly/disassembly and stored at −80 °C. Before each use, protein concentration was determined by the Bradford method taking BSA as standard.
Tubulin polymerization was monitored using a Helios α spectrophotometer by measuring the increase in turbidity at 450 nm, caused by a shift from 4 °C to 37 °C, which allows the in vitro microtubular protein to depolymerize and polymerize, respectively. The assay was carried out in quartz cuvettes containing 1.5 mg/mL microtubular protein and the ligand (except for control cuvette with only DMSO at the same concentration) in a mixture of 0.1 M MES buffer, 1 mM EGTA, 1 mM MgCl2, 1 mM β-ME, and 1.5 mM GTP at pH 6.7 (final volume 500 µL). Cuvettes were preincubated at 20 °C for 30 min, to allow ligand binding to tubulin, and subsequently cooled on ice for 10 min. Then, the experiment starts at 4 °C to establish the initial baseline. The assembly process was initiated by a temperature shift to 37 °C and the turbidity produced by tubulin polymerization can be measured by an absorbance increase. After reaching a stable plateau, the temperature was switched back to 4 °C to return to the initial absorption values (to confirm the reversible nature of the monitored process and to determine whether or not the microtubular tubular protein has stabilized). The difference in amplitude between the stable plateau and the initial baseline of the curves was taken as the degree of tubulin polymerization for each experiment. Comparison with control curves under identical conditions but without ligands yielded TPI as a percentage value. All compounds were tested at 10 µM concentration. Compounds that inhibited tubulin polymerization by at least 30% at 10 µM were tested at 20 µM. IC50 values were calculated for compounds that inhibit tubulin polymerization by more than 50% at 20 µM. Compounds were dissolved in DMSO, and the final solvent concentration never exceeded 4% (v/v), which has been reported not to interfere with the assembly process. All the measurements were carried out in at least two independent experiments using microtubular protein from different preparations.

Series [5] concerns HeLa (cervix epithelioid carcinoma). On the set-up: method as in PMID 7903152. Particulars: read-out: Antiproliferative Activity IC50 HeLa; cited from earlier work.
Series [6] deals with SKOV3 ovarian carcinoma cells. The experiment in a line: Antiproliferative activity against SKOV3 (MTT). The class given is cell-based. Particulars: Homo sapiens, SK-OV-3, 72 h. The protocol:
(§4) The in vitro antiproliferative activity of compounds 38, 42, and 45 against a panel of five human ovarian carcinoma cell lines (SKOV3, IGROV-1, A2780, OVCAR-8, and OVCAR-3) was evaluated by a colorimetric method (Table 3) and compared with paclitaxel. […] For SKOV3, the potency reduction observed for paclitaxel together with a sustained or improved (42 with a 7 nM IC50 value) potency for MDS results in a more favorable profile of the MDS compared to paclitaxel.
as §2
(§5) MCF7, HeLa, and HT-29 cell proliferation, when treated with the corresponding compounds, were determined using the XTT (sodium 3’-[1(phenylaminocarbonyl)-3,4-tetrazolium]-bis(4-methoxy-6-nitro)-benzenesulfonic acid hydrate) cell proliferation kit (Roche Molecular Biochemicals, Mannheim, Germany). […] The absorbance of the formazan product generated was measured at 450 nm using a multi-well plate reader. SKOV-3, OVCAR-3, OVCAR-8, IGROV-1, A-2780 cell proliferation, when treated with the corresponding compound, were determined using MTT (3-(4,5-dimethylthiazol-2-yl)-2,5-diphenyl-2H-tetrazolium bromide) (Sigma-Aldrich, St. Louis, MO, USA). […] Absorbance was measured at 570 nm in a plate reader (Ultra Evolution, Tecan, Männedorf, Suiza). […] After 24 h incubation, to allow cells to attach to the plates, all compounds were added at 1 µM concentration and the effect on the proliferation was evaluated 72 h post-treatment. […]

The test system of series [7] is HT-29 (colon adenocarcinoma). On the set-up: method as in ref 52 (a number printed in a supplementary file, which may have a reference list of its own: not looked up in the article's list). Particulars: read-out: Antiproliferative Activity IC50 HT-29; cited from earlier work.
For series [8], the system named is A2780 ovarian carcinoma cells. More on the design: method as in ref 14 (Bicaku, E. et al.). Particulars: ref 14 (Bicaku, E. et al.); read-out: Antiproliferative Activity IC50 A2780; cited from earlier work.
In series [9] the test system is MCF7 (breast adenocarcinoma). On the set-up: method as in PMID 7903152. Particulars: read-out: Antiproliferative Activity IC50 MCF7; cited from earlier work.
For the next series, the system named is SKOV3 cells. The experiment in a line: Annexin V-FITC/PI cell death quantification in SKOV3. The class given is cell-based, human. Particulars: SKOV3, 72 h, 38 600 nM, 42 50 nM, 45 400 nM, paclitaxel 10 nM. The protocol:
To determine whether the cytotoxic/antiproliferative effect of the MDS was due to apoptosis induction, cells were treated with variable concentrations of the drug for 72 h or 6 days, stained with Annexin V-FITC (AnV) and propidium iodide (PI), and analyzed by flow cytometry. Double negative cells (AnV^−/PI^−) were classified as live cells (L), cells positive for AnV and negative for PI (AnV^+/PI^−) were considered in Early Apoptosis (EA), cells negative for AnV and positive for PI (AnV^−/PI^+) were considered necrotic (N), and double-positive cells (AnV^+/PI^+) as Late Apoptosis (LA). In all cases, the compounds were used at the same concentrations previously used in cell cycle studies (Table 5).
MCF7, SKOV-3, and HeLa apoptotic cells were quantified using an Annexin V-FITC/PI apoptosis detection kit (Immunostep, Salamanca, Spain) according to the manufacturer’s guidelines. 1.5 mL/well of cells in the exponential growth phase at 2·10^4 cells/mL were seeded onto 12-well plates and left to attach overnight. After 24 h incubation, cells were treated with selected compounds. After 72 h (MCF7, SKOV-3, and HeLa) and 6 days (MCF7) post-treatment, attached and floating cells of treated and untreated wells were collected, centrifuged, resuspended in Annexin V binding buffer, and stained with Annexin V-FITC/PI. Cells were then incubated in darkness at room temperature for 15 min and a total of 30,000 cells were acquired and analyzed using the BD Accuri™ C6 Plus Flow Cytometer and Software (version 1.0.264.21, BD Biosciences, San José, CA, USA), respectively. Compounds were dissolved in DMSO and the final solvent concentration never exceeded 0.5% (v/v). Control wells included cells with 0.5% (v/v) DMSO.

Series [10] deals with OVCAR-3 ovarian carcinoma cells. More on the design: method as in ref 14 (Bicaku, E. et al.). Particulars: ref 14 (Bicaku, E. et al.); read-out: Antiproliferative Activity IC50 OVCAR-3; cited from earlier work.
Series [11] relates to OVCAR-8 ovarian carcinoma cells. On the set-up: method as in ref 14 (Bicaku, E. et al.). Particulars: ref 14 (Bicaku, E. et al.); read-out: Antiproliferative Activity IC50 OVCAR-8; cited from earlier work.
On the set-up of series [12]: method as in PMID 12734814, PMID 17116587, PMID 17613018. Particulars: cited from earlier work.
The test system of series [13] is IGROV-1 ovarian carcinoma cells. The experiment in a line: Antiproliferative activity against IGROV-1 (MTT). The series is classed as cell-based. Particulars: Homo sapiens, 72 h. The protocol: as §4, §2, §5

Converted amounts (≈) assume the structure as drawn. Read-outs that look alike come from different tables or passages of the source.

For `COc1ccc(S(=O)(=O)Nc2cccnc2Nc2ccc(O)cc2)cc1` [ABT-751, reference compound], the values for the IC50 in [1], in [3] and in series [4] were 0.18 µM, 0.388 µM and 4.4 µM, respectively. In series [2], the solubility at 48 h amounted to 0.04 mg/mL (≈ 108 µM). Also, the “TPI % 10 µM” value in series [4] (compound at 10 µM) worked out at 69%.

With `CC(=O)O[C@H]1C(=O)[C@@]2(C)[C@H]([C@H](OC(=O)c3ccccc3)[C@]3(O)C[C@H](OC(=O)[C@H](O)[C@@H](NC(=O)c4ccccc4)c4ccccc4)C(C)=C1C3(C)C)[C@]1(OC(C)=O)CO[C@@H]1C[C@@H]2O` [Paclitaxel, reference compound], the IC50 is 0.0026 µM in series [5]; 0.081 µM in [6]; 0.0028 µM in series [7]; 0.003 µM in series [8]; 0.0025 µM in series [9]; 0.017 µM in series [10]. Moreover, the 50% inhibitory concentration (IC50) in series [11] was 0.006 µM; in series [13], 0.039 µM. Also, the “Annexin V-FITC/PI 72 h EA (early apoptosis)” value with SKOV3 cells worked out at 3.8%. In addition, the “Annexin V-FITC/PI 72 h LA (late apoptosis)” value in the series on SKOV3 cells was found to be 3.1%. Besides, the “Annexin V-FITC/PI 72 h Live” value was 90.7% in the series on SKOV3 cells and 91% in the series with SKOV3 cells (listed as paclitaxel). Further, in the series on SKOV3 cells, the “Annexin V-FITC/PI 72 h Necrosis” value is listed as 2.4%. The “Annexin V-positive SKOV3 cells” value with SKOV3 cells is 7%. In addition, the Aqueous solubility in [12] is less than 0.002 mg/mL.
